Patent US11479622B2, “Active energy ray curable composition, active energy ray curable ink, composition accommodating container, two or three dimensional image forming apparatus, two or three dimensional image forming method, cured matter, decorative matter, artificial nail composition, nail decorative material, and …” (priority 2019, dated 2022)
Where two headings read alike, the source gives them in different places.

What was measured:
female mice = tested on: female mice
Experimental: According to the skin sensitization test based on the Local Lymph Node Assay (LLNA), the SI value was measured in the following manner.
As positive control material, α-hexylcinnamaldehyde (HCA; product of Wako Pure Chemical Industries, Ltd.) was used.
As a medium, a liquid mixture containing acetone (product of Wako Pure Chemical Industries, Ltd.) and olive oil (product of Fudimi Pharmaceutical Co., Ltd.) in a volume ratio of 4 to 1 was used.
Before the test, female mice were acclimated about the test substances, the positive control, the medium control for 8 days including 6-day quarantine.
Based on the body weights measured two days before the initiation of sensitization, they were categorized into two groups (four mice/group) by the body weight stratified random sampling method so that the body weight of each individual was within ±20 percent of the average body weight of all the individuals. Each of the animals for the test was eight to nine weeks old at the time of the initiation of sensitization. The individuals remaining after the categorization were excluded from the test.
The test substance was weighed in a measuring flask, and the volume of the test substance was adjusted to 1 mL with the medium. The thus-prepared test substance preparation was placed in a light-shielded airtight container (made of glass).
Prepared liquids and media of each of the test substance and positive control substance were applied to both auricles of the animal in an amount of 25 μL of each. A micropipettor was used for application. This treatment was performed once a day for three consecutive days.
About 48 hours after the final sensitization, the BrdU preparation liquid (0.5 mL) was intraperitoneally administered once to each of the animals.
About 24 hours after the administration of BrdU, the tested animals were allowed to undergo euthanasia, and their auricular lymph nodes were sampled. The surrounding tissue of each auricular lymph node was removed, and the auricular lymph nodes from both the auricles were collectively weighed. Also, the average and standard error of the weights of the auricular lymph nodes were calculated for each group. After the measurement of the weights, the auricular lymph nodes of each individual were stored in a frozen state using a biomedical freezer set to −20 degrees C.
After returning the auricular lymph nodes to room temperature, the auricular lymph nodes were mashed with the gradual addition of physiological saline, and suspended therein. The thus-obtained suspension was filtrated and thereafter dispensed into the wells of a 96-well microplate, with 3 wells being used per individual. The thus-dispensed suspensions were measured for intake of BrdU by the ELISA method. The reagents used were those of a commercially available kit (Cell Proliferation ELISA, BrdU colorimetric, Cat. No. 1647229, product of Roche Diagnostics Inc.). A multiplate reader (FLUOSTAR OPTIMA, product of BMG LABTECH Inc.) was used to measure the absorbance of each well (OD: 370 nm to 492 nm, the intake of BrdU), and the average of the absorbance of the 3 wells for each individual was used as the measurement of BrdU for the individual.
As shown in the following formula, the measurement of BrdU intake for each individual was divided by the average of the measurements of BrdU intake in the vehicle control group to calculate the SI value for the individual. The SI value of each test group was the average of the SI values of the individuals. […] SI=(Average (average of 3 well) of BrdU measuring value of individual)/(Average (average of four animals) of BrdU measuring value of medium control group) Relation 1

[1] = Oral toxicity according to OECD Test Guideline TG423; type: in vivo
[2] = type: cell-based; conditions: OECD test guideline TG471 (±S9mix)
[3] = in vivo
[4] = LLNA, BrdU intake by ELISA, mice, test substance 50.0 w/v percent in acetone/olive oil 4:1, 25 μL per auricle once per day × 3 days

Compound: C=CC(=O)N1CCC(C(=O)OCC)CC1 [Example A1-7, N-acryloyl-piperidine-4-ethyl carboxylate]
- SI (stimulation index) (female mice; female, mouse, in vivo, 3 days): (See Synthesis Example 7) SI = 1.70

Compound: C=C(C)C(=O)OCCO [Example A2-1, 2-hydroxyethyl methacrylate, reference compound]
- SI (stimulation index) (female mice; [4]): 2-hydroxyethyl methacrylate, SI = 1.26, Manufactured by Tokyo Chemical Industry Co. Ltd..

Compound: Isobornyl acrylate [Example A2-2, reference compound]
- SI (stimulation index) (female mice; [4]): Isobornyl acrylate, SI = 8.30, manufactured by Osaka Organic Chemical Company

Compound: C=CC(=O)OCC(CC)(COC(=O)C=C)COC(=O)C=C [Example B2-1, reference compound]
- SI (stimulation index) (female mice; [4]): M-3547, SI = 3.42, manufactured by TOAGOSEI CO., LTD.

Compound: C=C(C)C(=O)OCCOCCOC(=O)C(=C)C [Example B1-1, diethylene glycol dimethacrylate]
- SI (stimulation index) (female mice; female, mouse, in vivo, 3 days): 2G, SI = 1.05, manufactured by Shin-Nakamura Chemical Co.,Ltd.

Compound: C=CC(=O)N(C)[C@@H](C)C(=O)OC(C)C [Example A1-6, N-acryloyl-N-methyl alanine isopropyl ester]
- SI (stimulation index) (female mice; female, mouse, in vivo, 3 days): (See Synthesis Example 6) SI = 1.21

Compound: C=C(C)C(=O)OCC(COC(=O)C(=C)C)OC(C)=O [Example B1-6, 2-acetyl-1,3-glycerol dimethacrylate]
- SI (stimulation index) (female mice; female, mouse, in vivo, 3 days): (See Synthesis Example 8) SI = 1.40

Compound: C=CC(=O)N(CC(=O)OC)C(C)C [Example A1-3, N-acryloyl-N-isopropyl glycine methyl ester]
- SI (stimulation index) (female mice; female, mouse, in vivo, 3 days): (See Synthesis Example 3) SI = 1.05

Compound: C=C(C)C(=O)OCC(CC)(COC(=O)C(=C)C)COC(=O)C(=C)C [Example B1-3, trimethylol propane trimethacrylate]
- SI (stimulation index) (female mice; [4]): TMPT, SI = 1.03, manufactured by Shin Nakamura Chemical Co., Ltd.

Compound: C=CC(=O)N(C)CC(=O)OC [Example A1-1, N-acryloyl-N-methyl glycine methyl ester]
- SI (stimulation index) (female mice; [4]): (See Synthesis Example 1) SI = 1.00
- SI value (skin sensitivity) (female mice; OECD Test Guideline TG442B): 1.00
- Oral toxicity, cases died [1]: 0 out of 6
- LD50 ([1]; in vivo, 2000 mg/kg): ≥ 2000 mg/kg
- AMES test [2]: negative
- PII (skin irritation) [3]: 0.5

Compound: C=CC(=O)N(C)[C@@H](C)C(=O)OC [Example A1-4, N-acryloyl-N-methyl alanine methyl ester]
- SI (stimulation index) (female mice; female, mouse, in vivo, 3 days): (See Synthesis Example 4) SI = 1.12
